The results in this text go back to the pKa sets of Baltruschat and Czodrowski (2020).

The term pKa denotes the pH at which an ionisable group is half protonated. Low readings indicate a stronger acid or weaker base, high ones a weaker acid or stronger base.

Compound `O=C(c1ccccc1)c1ccc2n1CCC2C(=O)O` (stereo unspecified) yielded a pKa of 3.5.

The compound `Cc1ccc(C(=O)c2ccc(CC(=O)O)n2C)cc1` showed a pKa of 3.5.

For the compound `CCn1nc(C(=O)O)c(=O)c2cc3c(cc21)OCO3`, the pKa turned out to be 4.7.

As for `Cc1cccc(Nc2ccccc2C(=O)O)c1C`, the pKa was determined as 4.5.

The source holds these as a separate data set.
For `CCCCCCCCCC(=O)OC(CC(=O)O)C[N+](C)(C)C` (stereo unspecified), the pKa is 3.65.

Regarding `Nc1ccc(C(=O)O)cc1`, the pKa was 4.87.

For the compound `CN(C)[C@@H]1C(O)=C(C(N)=O)C(=O)[C@@]2(O)C(O)=C3C(=O)c4c(O)cccc4[C@@](C)(O)C3[C@H](O)C12` (stereo partly specified), the pKa was found to be 7.32.

`O=C(O)c1cccnc1` came in with a pKa of 2.05.

Compound `CCCCCCCC(=O)OC(CC(=O)O)C[N+](C)(C)C` (stereo unspecified) showed a pKa of 3.6.

In turn, `CCCC(=O)OC(CC(=O)O)C[N+](C)(C)C` (stereo unspecified) gave a pKa of 3.56.

As for `COc1ccc2c3c1O[C@H]1[C@@H](O)C=CC4[C@@H](C2)NCC[C@@]341` (stereo partly specified), the pKa is 9.23.
